Data as given in patent publication US12486302B2, “Somatostatin receptor antagonist compounds and methods of using the same” (CDRD VENTURES INC., priority 2016, dated 2025).
*1 amine or outer side, *2 acyl side, *3 side chain or, on linkers, in order; H or OH if unused. Where a SMILES comes first, the peptide text is derived from it. Bridges are numbered along the chain shown (N, C = ends). Side-chain parts run from the residue outwards. [ ]: non-standard residue; d: D form. The star is where a group is joined. X1 = O=C([C@@H](Cc1ccc(NS(=O)(=O)c2ccccc2)cc1)N[*:1])[*:2]; dPhe(4-CONH2) = NC(=O)c1ccc(C[C@@H](N)C(=O)O)cc1; dPhe(4-NH2) = Nc1ccc(C[C@@H](N)C(=O)O)cc1; Phe(4-Cl) = N[C@@H](Cc1ccc(Cl)cc1)C(=O)O; Lys(Me) = CNCCCC[C@H](N)C(=O)O; CO = O=C([*:1])[*:2]; NHPh = c1ccc(N*)cc1

Experiments:
SSTR4 = SSTR4 (Homo sapiens, UniProt P31391); test: PathHunter β-Arrestin assay, antagonist mode, SSTR4; format: cell-based; details: agonist challenge at EC80
Method: (§1) The PathHunter® β-Arrestin assay monitors the activation of a GPCR in a homogenous, non-imaging assay format using a technology developed by DiscoveRx called Enzyme Fragment Complementation (EFC) with β-galactosidase (β-Gal) as the functional reporter. […] EA is fused to β-Arrestin and […] is fused to the GPCR of interest. When the GPCR is activated and β-Arrestin is recruited to the receptor, ED and EA complementation occurs, restoring β-Gal activity which is measured using chemiluminescent PathHunter® Detection Reagents. For antagonist determination, cells were pre-incubated with the compounds followed by agonist challenge at the EC80 concentration. Data was normalized to the maximal and minimal response observed in the presence of EC80 ligand and vehicle. Compound activity was analyzed using CBIS data analysis suite ChemInnovation, CA). Percentage inhibition was calculated using the following formula: % Inhibition=100%×(1−(mean signal of test sample-mean signal of vehicle control)/(mean signal of EC80 control-mean signal of vehicle control)). Percentage inhibition was calculated at 10 concentrations in steps on a Log 3 scale ranging from […] to 5e-5 μM. The results were plotted for IC50 calculation.

[1] = biological target: somatostatin type 2 (SSTR2) receptors (Homo sapiens, UniProt P30874); test: PathHunter β-Arrestin assay, antagonist mode, SSTR2; format: cell-based; details: agonist challenge at EC80
How it was run: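 Cells co-expressing PK-tagged human receptor and EA-β-Arrestin were pre-incubated with compound, then challenged with agonist at EC80. β-Gal complementation read by chemiluminescence; % inhibition normalized to EC80 and vehicle controls at 10 concentrations (log 3 steps from 1 μM down to 5e-5 μM), fitted for IC50.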

SSTR1 = SSTR1 (Homo sapiens, UniProt P30872); test: PathHunter β-Arrestin assay, antagonist mode, SSTR1; format: cell-based; details: agonist challenge at EC80
Method: as §1

SSTR3 = SSTR3 (Homo sapiens, UniProt P32745); test: PathHunter β-Arrestin assay, antagonist mode, SSTR3; format: cell-based; details: agonist challenge at EC80
Method: as §1

[2] = tested on: STZ diabetic Sprague Dawley rats; test: Hypoglycemic Challenge #2 (20 U/kg insulin) in STZ diabetic rats; format: in vivo, rat; details: 20 U/kg insulin challenge; target BG 2.5 mM; N=9
Method: (§2) Male Sprague Dawley rats (initial weight 150-175 g) were purchased from Charles River Laboratories (Montreal, QC, Canada). Rats were housed in the York University Vivarium in a 12-hour light dark cycle. All animals were fed a standard rodent chow diet (14% fat, 54% carbohydrates, […] & 3.0 calories/g of food) and water ad libitum. After a minimum of one week of acclimation, all animals received an intraperitoneal injection of streptozotocin (STZ) (Sigma) at a dose of 65 mg/kg body weight. After STZ injection, animals were provided with sugar water (5% solution) overnight. Any animals whose blood glucose was not greater than 10 mM within 2 days of STZ injection received a second injection.
One week after induction of diabetes, insulin treatment was initiated to maintain blood glucose values within a reasonable glucose controlled range in the fasted state (8-20 mM). Insulin pellets (LinChin, Toronto, ON, Canada) were implanted subcutaneously in any rat with blood glucose over 20 mM. […]
One week after the first hypoglycemia challenge, a second similar hypoglycemic challenge (Hypoglycemia Challenge #2) was conducted; however this time a higher dose of insulin was given to insure that severe hypoglycemia developed (20U Novo Rapid/kg body weight). Blood glucose was monitored, every 5-10 min, via saphenous vein puncture. […]

SSTR5 = SSTR5 (Homo sapiens, UniProt P35346); test: PathHunter β-Arrestin assay, antagonist mode, SSTR5; format: cell-based; details: agonist challenge at EC80
Method: as §1

[3] = tested on: STZ diabetic Sprague Dawley rats; test: Hypoglycemic Challenge #1 (10 U/kg insulin) in STZ diabetic rats; format: in vivo, rat; details: for period after insulin with significantly higher BG values compared with Vehicle Control: 2-Way ANOVA, insulin 10 U/kg; for peak glucagon value: saphenous blood, 0 to 100 minutes after insulin dosing
Method: as §2
One week after induction of diabetes, insulin treatment was initiated to maintain blood glucose values within a reasonable glucose controlled range in the fasted state (8-20 mM). Insulin pellets (LinChin, Toronto, ON, Canada) were implanted subcutaneously in any rat with blood glucose over 20 mM. Briefly, animals were anesthetized via inhaled isoflurane and pellets were implanted subcutaneously within the scapular region. One week later animals underwent their first hypoglycemic challenge (Hypoglycemic Challenge #1), followed by a second hypoglycemic challenge (Hypoglycemic Challenge #2) the following week (see below). Throughout the study, daily animals checks were conducted to assess body weight, blood glucose as well as food/calorie consumption.
Animals were divided into groups and received Compound 4, or Compound 24 or a corresponding dose of vehicle. Compounds were given 1 hour prior to commencement of the hypoglycemic challenge. On the morning of the hypoglycemic challenge, food was removed from the cage and a plasma sample was collected as baseline (prior to compound/vehicle administration), one-hour post drug/vehicle administration and at set points throughout the challenges.
For Hypoglycemic Challenge #1, hypoglycemia was induced via subcutaneous administration of a bolus of insulin (10U Novo Rapid insulin/kg body weight). Blood glucose was assessed every 10 minutes via saphenous vein puncture. Additionally, plasma was collected from the saphenous vein every 20 minutes, until 100-minutes post insulin administration. An additional plasma sample was collected 4-hours post drug administration (3 hours post insulin bolus) for mass spectrometry analysis of the compounds in plasma.

Chain of SSTR4 (P31391 whole entry, the tested form may be a part): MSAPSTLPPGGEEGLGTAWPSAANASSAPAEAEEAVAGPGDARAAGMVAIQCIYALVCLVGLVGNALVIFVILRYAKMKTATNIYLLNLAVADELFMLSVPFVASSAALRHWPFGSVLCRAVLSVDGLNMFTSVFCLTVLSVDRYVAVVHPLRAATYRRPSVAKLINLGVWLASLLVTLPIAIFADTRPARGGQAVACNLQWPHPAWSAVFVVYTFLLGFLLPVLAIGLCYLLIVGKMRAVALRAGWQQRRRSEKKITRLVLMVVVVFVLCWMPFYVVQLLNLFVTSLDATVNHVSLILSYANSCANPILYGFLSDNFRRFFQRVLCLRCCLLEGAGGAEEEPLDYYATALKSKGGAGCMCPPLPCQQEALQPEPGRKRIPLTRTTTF
Chain of somatostatin type 2 (SSTR2) receptors (P30874 whole entry): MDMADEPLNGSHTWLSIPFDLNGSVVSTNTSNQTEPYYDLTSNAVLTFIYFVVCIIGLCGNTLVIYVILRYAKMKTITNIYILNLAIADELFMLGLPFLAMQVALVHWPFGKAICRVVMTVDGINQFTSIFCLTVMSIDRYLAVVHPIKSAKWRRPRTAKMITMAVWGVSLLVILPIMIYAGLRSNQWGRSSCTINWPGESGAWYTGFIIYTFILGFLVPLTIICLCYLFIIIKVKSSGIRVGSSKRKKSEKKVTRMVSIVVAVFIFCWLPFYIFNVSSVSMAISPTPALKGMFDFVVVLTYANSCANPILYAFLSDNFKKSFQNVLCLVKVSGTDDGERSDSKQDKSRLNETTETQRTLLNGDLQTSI
Chain of SSTR5 (P35346 whole entry): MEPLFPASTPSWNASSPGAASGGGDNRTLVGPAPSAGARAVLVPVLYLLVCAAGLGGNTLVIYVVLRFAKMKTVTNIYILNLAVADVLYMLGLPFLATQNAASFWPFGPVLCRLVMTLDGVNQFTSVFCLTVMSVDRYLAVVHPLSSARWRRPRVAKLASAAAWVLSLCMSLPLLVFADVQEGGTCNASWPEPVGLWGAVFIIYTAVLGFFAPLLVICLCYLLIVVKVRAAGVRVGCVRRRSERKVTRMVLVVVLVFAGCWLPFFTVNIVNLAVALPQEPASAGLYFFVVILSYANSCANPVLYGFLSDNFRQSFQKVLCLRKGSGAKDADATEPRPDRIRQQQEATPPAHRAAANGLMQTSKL
Chain of SSTR3 (P32745 whole entry): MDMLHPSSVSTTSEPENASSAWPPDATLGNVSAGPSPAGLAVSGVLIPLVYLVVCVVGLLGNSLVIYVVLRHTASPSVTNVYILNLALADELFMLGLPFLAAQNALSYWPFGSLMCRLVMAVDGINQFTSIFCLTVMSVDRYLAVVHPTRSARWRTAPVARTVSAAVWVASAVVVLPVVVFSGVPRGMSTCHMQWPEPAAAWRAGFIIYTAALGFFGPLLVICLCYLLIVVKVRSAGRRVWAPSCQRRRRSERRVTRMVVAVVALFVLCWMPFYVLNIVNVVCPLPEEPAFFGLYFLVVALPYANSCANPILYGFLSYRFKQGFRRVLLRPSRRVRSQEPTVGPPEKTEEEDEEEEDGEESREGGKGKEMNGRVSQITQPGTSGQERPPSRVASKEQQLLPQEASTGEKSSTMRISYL
Chain of SSTR1 (P30872 whole entry): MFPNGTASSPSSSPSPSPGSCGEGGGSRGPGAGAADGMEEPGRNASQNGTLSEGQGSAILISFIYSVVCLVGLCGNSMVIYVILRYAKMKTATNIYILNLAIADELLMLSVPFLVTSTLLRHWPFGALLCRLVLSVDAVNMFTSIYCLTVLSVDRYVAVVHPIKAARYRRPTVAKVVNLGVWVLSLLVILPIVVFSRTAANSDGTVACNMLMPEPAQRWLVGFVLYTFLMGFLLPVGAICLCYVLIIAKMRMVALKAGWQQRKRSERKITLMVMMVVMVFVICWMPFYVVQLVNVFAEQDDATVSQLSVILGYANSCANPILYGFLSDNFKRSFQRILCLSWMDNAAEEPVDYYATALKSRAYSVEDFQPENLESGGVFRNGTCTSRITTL

IC50 (SSTR4) | IC50 [1] | IC50 (SSTR1) | IC50 (SSTR3) | IC50 (SSTR5) | SMILES | average portal blood glucagon concentration at hypoglycemia [2] | period after insulin with significantly higher BG values compared with Vehicle Control ([3]; N=9) | incidence of severe hypoglycemia (BG threshold 1.9 mM) ([3]; after 130 minutes) | peak glucagon value ([3]; N=9) | time at which rats first became hypoglycemic (BG threshold 3.9 mM) ([3]; 2 of 9 rats, after insulin 10 U/kg) | average time to onset of hypoglycemia (BG first reached 3.9 mM) ([3]; after 10 U/kg insulin dose, interpolated from BG curves, N=9) | incidence of severe hypoglycemia (BG threshold 1.9 mM) ([3]; after 150 minutes) | AUC of blood glucose below the 3.9 mM threshold (extent of hypoglycemia) ([3]; compound at t=-60 min, insulin 10 U/kg at t=0, N=9) | number of rats that never became hypoglycemic ([3]; of 9 rats, BG threshold 3.9 mM)
> 1000 nM | 17 nM | > 1000 nM | > 1000 nM | > 1000 nM | C[C@@H](O)[C@@H]1NC(=O)[C@H](CCCCN)NC(=O)[C@@H](Cc2ccc(C(N)=O)cc2)NC(=O)[C@H](Cc2ccc(O)cc2)NC(=O)[C@H](NC(=O)[C@@H](N)Cc2ccc(Cl)cc2)CSSC[C@@H](C(=O)N[C@H](Cc2ccc(O)cc2)C(N)=O)NC1=O [Compound 4, H-Cpa-cyclo[D-Cys-Tyr-D-Phe(4-carbamoyl)-Lys-Thr-Cys]-D-Tyr-NH2] | 462 pg/mL | 20 min | 33% | 180 pg/mL |  |  |  |  | 
> 1000 nM | 21 nM | > 1000 nM | > 1000 nM | > 1000 nM | C[C@@H](O)[C@@H]1NC(=O)[C@H](CCCCN)NC(=O)[C@@H](Cc2ccc(NS(=O)(=O)c3ccccc3)cc2)NC(=O)[C@H](Cc2ccc(O)cc2)NC(=O)[C@H](NC(=O)[C@@H](N)Cc2ccc(Cl)cc2)CSSC[C@@H](C(=O)N[C@H](Cc2ccc(O)cc2)C(N)=O)NC1=O [Compound 14, H-Cpa-cyclo[DCys- Tyr-D-4- (benzenesulfonyl) Aph-Lys-Thr- Cys]-DTyr-NH2] (H-[Phe(4-Cl)][dC]Y[X1]KTC[dY]-NH2; disulfide 2-7) |  |  |  |  |  |  |  |  | 
> 1000 nM | 1 nM | > 1000 nM | > 1000 nM | > 1000 nM | C[C@@H](O)[C@@H]1NC(=O)[C@H](CCCCN)NC(=O)[C@@H](Cc2ccc(NC(=O)Nc3ccccc3)cc2)NC(=O)[C@H](Cc2ccc(O)cc2)NC(=O)[C@H](NC(=O)[C@@H](N)Cc2ccc(Cl)cc2)CSSC[C@@H](C(=O)N[C@H](Cc2ccc(O)cc2)C(N)=O)NC1=O [Compound 15, H-Cpa-cyclo[D-Cys-Tyr-D-Phe(4-phenylureido)-Lys-Thr-Cys]-D-Tyr-NH2] (H-[Phe(4-Cl)][dC]Y[dPhe(4-NH2)]([CO-NHPh])KTC[dY]-NH2; disulfide 2-7) |  |  |  |  |  |  |  |  | 
> 1000 nM | 0.96 nM | > 1000 nM | > 1000 nM | > 1000 nM | CNCCCC[C@@H]1NC(=O)[C@@H](Cc2ccc(C(N)=O)cc2)NC(=O)[C@H](Cc2ccc(O)cc2)NC(=O)[C@H](NC(=O)[C@@H](N)Cc2ccc(Cl)cc2)CSSC[C@@H](C(=O)N[C@H](Cc2ccc(O)cc2)C(N)=O)NC(=O)[C@H]([C@@H](C)O)NC1=O [Compound 24, H-Cpa-cyclo[D-Cys-Tyr-D-Phe(4-carbamoyl)-Lys(N^ε-Me)-Thr-Cys]-D-Tyr-NH2] (H-[Phe(4-Cl)][dC]Y[dPhe(4-CONH2)][Lys(Me)]TC[dY]-NH2; disulfide 2-7) | 801 pg/mL | 40 min |  | 175 pg/mL | 40 min | 97 min | 44% | 55 mM·min | 1
